In ChEMBL document CHEMBL1201862, “PubChem BioAssay data set” (2004):
Activity calls are given as the source filed them.

Legend:
cells [1] = format: functional
[2] = target: T1, Calpain-2 catalytic subunit (Sus scrofa, UniProt P43367); assay: m-calpain protease blockers, concentration series – biochemical, fluorogenic peptide substrate, dose response (AID 1420); format: functional
T1 sequence (P43367 whole entry): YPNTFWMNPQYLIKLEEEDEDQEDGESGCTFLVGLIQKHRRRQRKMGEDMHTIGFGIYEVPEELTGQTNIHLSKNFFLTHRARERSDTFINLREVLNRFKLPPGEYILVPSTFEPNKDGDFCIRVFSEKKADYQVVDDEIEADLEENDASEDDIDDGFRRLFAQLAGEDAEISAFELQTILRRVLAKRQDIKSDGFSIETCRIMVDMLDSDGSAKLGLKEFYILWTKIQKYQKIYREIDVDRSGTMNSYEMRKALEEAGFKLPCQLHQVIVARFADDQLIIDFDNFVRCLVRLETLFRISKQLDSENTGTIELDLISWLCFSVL

[3] = THP-1 cell cytotoxicity, dose response, cytotoxicity control for non-replicating M. tuberculosis project (AID 489025); format: functional
Cytochrome P450 2C9 = Cytochrome P450 2C9 (Homo sapiens, UniProt P11712)
[4] = target: T2, Ubiquitin-conjugating enzyme E2 N (Homo sapiens, UniProt P61088); format: functional;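 note: Dose-response confirmation in a TR-FRET assay detecting UBC13-driven polyubiquitin chain formation, inhibition measured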
T2 sequence (P61088 whole entry): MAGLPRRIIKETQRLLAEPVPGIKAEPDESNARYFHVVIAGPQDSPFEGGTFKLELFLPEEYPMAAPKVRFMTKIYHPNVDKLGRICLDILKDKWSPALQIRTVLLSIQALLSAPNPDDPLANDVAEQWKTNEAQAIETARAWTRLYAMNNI

Cytochrome P450 3A4 = Cytochrome P450 3A4 (Homo sapiens, UniProt P08684); settings: Potency;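 note: confirmatory qHTS run detecting inhibitors and substrates of CYP3A4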
cells [5] = format: functional, cell-based
cells [6] = format: functional, cell-based; remark: listed apart in the source
Leucine aminopeptidase = target: T3, Leucine aminopeptidase (Plasmodium falciparum 3D7, UniProt Q8IL11); assay: P. falciparum M17LAP inhibitors, primary screen, biochemical, fluorogenic H-Leu-NHMec substrate, 1536-well (AID 1619); format: functional
T3 sequence (Q8IL11 whole entry): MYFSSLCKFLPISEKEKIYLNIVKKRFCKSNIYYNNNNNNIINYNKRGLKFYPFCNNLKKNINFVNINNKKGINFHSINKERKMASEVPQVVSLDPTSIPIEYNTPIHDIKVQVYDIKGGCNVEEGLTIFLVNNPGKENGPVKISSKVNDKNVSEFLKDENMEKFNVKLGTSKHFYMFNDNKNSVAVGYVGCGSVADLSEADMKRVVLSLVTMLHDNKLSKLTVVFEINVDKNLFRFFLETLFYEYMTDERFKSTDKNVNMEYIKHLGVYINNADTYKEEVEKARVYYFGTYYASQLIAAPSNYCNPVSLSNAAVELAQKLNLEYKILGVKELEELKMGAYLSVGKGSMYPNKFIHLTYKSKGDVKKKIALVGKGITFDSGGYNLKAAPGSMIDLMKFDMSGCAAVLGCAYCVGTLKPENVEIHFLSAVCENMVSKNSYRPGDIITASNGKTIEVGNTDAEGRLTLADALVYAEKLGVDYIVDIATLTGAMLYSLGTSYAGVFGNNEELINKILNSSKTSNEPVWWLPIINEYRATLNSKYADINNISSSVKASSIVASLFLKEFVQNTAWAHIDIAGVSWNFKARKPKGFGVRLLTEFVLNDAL

[7] = fluconazole-exposed Candida albicans growth modulators – fluorescence, retest, confirmation (AID 2467); format: functional, cell-based
[8] = NIH-3T3 fibroblast cytotoxicity, dose response, cytotoxicity control, cell-based, fluorescence, Alamar Blue, secondary assay (AID 2327); format: functional;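 note: NIH-3T3 mouse fibroblasts cultured with fluconazole at 8 µg/mL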
[9] = reduction of Shn3 3'UTR-driven luciferase in osteoblasts – cell-based, Clone20 osteoblasts, firefly luciferase, cherry-picked, dose response (AID 624132); format: functional;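 note: firefly luciferase luminescence from reporter carrying the Shn3 3'UTR in osteoblasts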
[10] = non-specific 3'UTR reporter inhibition in Clone20-Shn3RL – cell-based, Renilla luciferase, cherry-picked, counter-screen for Shn3 inhibitor project, dose response (AID 624133); format: functional
[11] = loss of viability in HepG2 cells – cell-based, CellTiter-Glo, cherry-picked, cytotoxicity control for Shn3 inhibitor project, dose response (AID 624134); format: functional

Sequence of Cytochrome P450 3A4 (P08684 whole entry): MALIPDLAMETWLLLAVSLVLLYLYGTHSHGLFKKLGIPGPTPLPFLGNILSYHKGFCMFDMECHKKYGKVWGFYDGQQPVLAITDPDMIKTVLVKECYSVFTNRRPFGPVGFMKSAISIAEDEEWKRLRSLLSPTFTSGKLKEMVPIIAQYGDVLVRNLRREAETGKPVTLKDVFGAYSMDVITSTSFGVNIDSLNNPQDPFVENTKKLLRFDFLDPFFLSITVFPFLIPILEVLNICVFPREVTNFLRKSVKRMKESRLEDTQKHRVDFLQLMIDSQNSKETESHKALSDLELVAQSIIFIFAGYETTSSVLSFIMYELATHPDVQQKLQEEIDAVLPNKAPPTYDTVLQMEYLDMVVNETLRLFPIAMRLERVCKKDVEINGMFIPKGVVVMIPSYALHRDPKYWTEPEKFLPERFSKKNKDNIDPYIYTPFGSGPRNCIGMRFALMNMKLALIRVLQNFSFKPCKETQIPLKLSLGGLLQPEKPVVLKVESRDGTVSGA
Sequence of Cytochrome P450 2C9 (P11712 whole entry): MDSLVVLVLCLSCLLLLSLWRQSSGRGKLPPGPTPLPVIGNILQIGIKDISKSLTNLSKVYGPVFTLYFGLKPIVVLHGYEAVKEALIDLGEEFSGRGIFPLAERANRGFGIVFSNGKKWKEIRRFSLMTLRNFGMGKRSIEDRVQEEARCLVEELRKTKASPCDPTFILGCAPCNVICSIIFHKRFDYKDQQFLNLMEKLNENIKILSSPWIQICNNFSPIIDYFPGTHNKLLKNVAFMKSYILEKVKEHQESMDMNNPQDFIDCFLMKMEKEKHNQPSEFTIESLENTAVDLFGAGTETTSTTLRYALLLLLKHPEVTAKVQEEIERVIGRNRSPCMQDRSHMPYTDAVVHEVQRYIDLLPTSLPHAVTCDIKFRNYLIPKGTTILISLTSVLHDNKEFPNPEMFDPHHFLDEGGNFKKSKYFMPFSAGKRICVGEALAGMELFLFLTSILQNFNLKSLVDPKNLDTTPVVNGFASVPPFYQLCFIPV

Compound: CC(C)Cn1c(N)c(C(=O)COC(=O)c2cnc(Cl)c(Cl)c2)c(=O)n(C)c1=O
- IC50 (cells [1]): 13.2 µM (active)
- IC50 [2]: 15.3 µM (not active)
- CC50 [3]: 25.7 µM (active)

Compound: CCCCN1CCC(n2c(=O)[nH]c3ccccc32)CC1
- AC50 (Cytochrome P450 2C9): inconclusive

Compound: CCN1C(=O)c2cccc3c(NC(=O)c4ccc(S(=O)(=O)N(C)C)cc4)ccc1c23
- IC50 [4]: > 20 µM (inactive)

Compound: O=C(c1ccc(Cl)cc1Cl)N1CCC(c2nc(O)c3nnn(Cc4ccco4)c3n2)CC1
- IC50 [2]: > 50 µM (not active)

Compound: COc1cccc(N)c1
- AC50 (Cytochrome P450 3A4): 31.6 µM (inconclusive)

Compound: OCc1cc(O)c(OCc2ccccc2)cn1
- EC50 (cells [5]): > 350 µM (not active)
- EC50 (cells [6]): > 350 µM (not active)

Compound: O=C(NCC(=O)N(Cc1ccco1)C(C(=O)NC1CCCCC1)c1cccnc1)c1cccs1 (stereo not given)
- EC50 (cells [5]): > 350 µM (not active)
- EC50 (cells [6]): > 350 µM (not active)

Compound: Cc1c(O)c([S+]([O-])c2ccccc2)c(=O)n(-c2ccccc2)c1-c1ccccc1 (stereo not given)
- IC50 (Leucine aminopeptidase): 15.1 µM (active)

Compound: CCCCN(C(=O)c1c(C)[nH]c(C(=O)OCC)c1C)c1ccccc1
- EC50 (cells [5]): > 350 µM (not active)
- EC50 (cells [6]): > 350 µM (not active)

Compound: COc1ccc(C(=O)N(CN2CCCC2=O)c2ccc(C)cc2)cc1
- EC50 [7]: > 38 µM (not active)
- EC50 [8]: 66 µM (active)

Compound: COc1ccccc1[C@@H]1C(c2cccc(C)c2)=NN(c2ccccc2)[C@H]1C(=O)N1CCOC1=O
- IC50 [4]: > 20 µM (inactive)

Compound: CCC1=C2CC[C@H]3C(=O)N(CC(=O)OC)C(=O)[C@H]3[C@H]2[C@@]2(C)/C(=N/CC(=O)OC)OC(=O)N2C1=O
- AC50 (Cytochrome P450 3A4): 25.1 µM (inconclusive)

Compound: CCC(=O)c1ccc(OCc2ccc(C(=O)c3ccccc3)cc2)cc1
- AC50 [9]: 3.29 µM (active)
- AC50 [10]: 5.86 µM (active)
- AC50 [11]: 26.3 µM (active)

Compound: Cn1cc(CC(=O)N2CCN(c3ccc(Cl)cc3)CC2)c2ccccc21
- EC50 (cells [5]): > 350 µM (not active)
- EC50 (cells [6]): > 350 µM (not active)

Compound: O=C1c2cccc3cccc(c23)C(=O)N1CCc1ccccc1
- IC50 [4]: > 20 µM (inactive)

Compound: O=C(O)c1cccc(CSc2nc(-c3ccccc3)cc(C(F)(F)F)n2)c1
- EC50 [7]: 5.9 µM (active)
- EC50 [8]: > 150 µM (inactive)

Compound: COc1ccc(CN2C(=O)c3cccc4cccc2c34)cc1F
- IC50 [4]: > 20 µM (inactive)

Compound: CCOc1ccc(Nc2nc(Cc3nnc(SCC(=O)O)o3)cs2)cc1
- IC50 (Leucine aminopeptidase): 7.08 µM (active)

Compound: OC1(c2cn(Cc3ccccc3)nn2)CCCCC1
- IC50 (Leucine aminopeptidase): 61.5 µM (active)

Compound: COC(=O)CCCCCN1C(=O)NC(c2ccccc2)C(C(=O)OCc2ccccc2)=C1C (stereo not given)
- AC50 (Cytochrome P450 3A4): 10 µM (inconclusive)
